Laboratory results as given in article PMC8879474, “Tissue Transglutaminase but Not Microbial Transglutaminase Is Inhibited by Exogenous Oxidative Substances in Celiac Disease” (International Journal of Molecular Sciences, 2022).

Target: T1, transglutaminase 2 (TG2, tissue transglutaminase) (Homo sapiens, UniProt P21980)
T1 construct: gene TGM2
T1 sequence (P21980 2-687): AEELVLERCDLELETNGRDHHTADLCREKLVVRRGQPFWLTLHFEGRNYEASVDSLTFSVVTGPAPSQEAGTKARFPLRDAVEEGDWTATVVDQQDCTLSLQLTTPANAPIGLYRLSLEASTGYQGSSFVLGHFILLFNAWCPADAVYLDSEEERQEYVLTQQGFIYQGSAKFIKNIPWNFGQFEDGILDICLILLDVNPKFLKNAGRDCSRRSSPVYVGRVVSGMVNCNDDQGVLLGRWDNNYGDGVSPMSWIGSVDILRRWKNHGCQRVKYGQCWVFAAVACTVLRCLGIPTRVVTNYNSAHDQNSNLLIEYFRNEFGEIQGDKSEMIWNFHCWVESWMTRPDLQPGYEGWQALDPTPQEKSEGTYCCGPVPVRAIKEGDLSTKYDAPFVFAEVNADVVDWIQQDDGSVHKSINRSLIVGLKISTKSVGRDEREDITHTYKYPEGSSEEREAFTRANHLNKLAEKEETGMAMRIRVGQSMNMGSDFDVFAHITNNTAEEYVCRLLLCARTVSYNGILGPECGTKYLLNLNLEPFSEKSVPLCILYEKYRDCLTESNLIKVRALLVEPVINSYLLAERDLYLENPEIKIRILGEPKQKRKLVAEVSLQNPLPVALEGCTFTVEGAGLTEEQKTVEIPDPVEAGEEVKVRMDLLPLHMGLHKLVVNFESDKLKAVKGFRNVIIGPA
Experiment: in vitro 5BP transamidation assay with immobilized TG2 ([…]), photometric
Assay type: biochemical

| IC50 [µM] | Structure (SMILES) |
| --- | --- |
| 140 | N[C@@H](CSSC[C@H](N)C(=O)O)C(=O)O [L-cystine] |
| 0.7 | CCC(C)SSc1ncc[nH]1 (centres unmarked) [PX12, 1-methylpropyl 2-imidazolyl disulfide] |
